Active and inactive are the calls of the source.
Tests used:
[1] = target: Mu-type opioid receptor (Homo sapiens, UniProt P35372); format: functional, cell-based;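 note: U2OS cells with beta-arrestin recruitment to OPRM1 by beta-gal complementation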
[2] = target: 5-hydroxytryptamine receptor 2A (Mus musculus, UniProt P35363); format: functional, cell-based;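 note: CHO-K1 cells with tagged receptor and beta-arrestin; agonist potency measured as compound-induced activation of the receptor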
[3] = target: T1, Sentrin-specific protease 8 (Homo sapiens, UniProt Q96LD8); format: functional
T1 sequence (Q96LD8 whole entry): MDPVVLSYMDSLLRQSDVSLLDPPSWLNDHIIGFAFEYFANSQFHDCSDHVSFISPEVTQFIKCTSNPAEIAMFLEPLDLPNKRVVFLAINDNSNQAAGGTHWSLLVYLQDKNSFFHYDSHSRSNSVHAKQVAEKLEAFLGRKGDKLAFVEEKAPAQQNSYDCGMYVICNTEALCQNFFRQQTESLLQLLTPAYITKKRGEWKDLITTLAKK

[4] = target: T2, Replicative DNA helicase DnaB (Mycobacterium tuberculosis, UniProt P9WMR3); assay: DnaB intein splicing inhibitors, dose response, biochemical, cell-free fluorescence (AID 449749); format: functional
T2 sequence (P9WMR3 whole entry): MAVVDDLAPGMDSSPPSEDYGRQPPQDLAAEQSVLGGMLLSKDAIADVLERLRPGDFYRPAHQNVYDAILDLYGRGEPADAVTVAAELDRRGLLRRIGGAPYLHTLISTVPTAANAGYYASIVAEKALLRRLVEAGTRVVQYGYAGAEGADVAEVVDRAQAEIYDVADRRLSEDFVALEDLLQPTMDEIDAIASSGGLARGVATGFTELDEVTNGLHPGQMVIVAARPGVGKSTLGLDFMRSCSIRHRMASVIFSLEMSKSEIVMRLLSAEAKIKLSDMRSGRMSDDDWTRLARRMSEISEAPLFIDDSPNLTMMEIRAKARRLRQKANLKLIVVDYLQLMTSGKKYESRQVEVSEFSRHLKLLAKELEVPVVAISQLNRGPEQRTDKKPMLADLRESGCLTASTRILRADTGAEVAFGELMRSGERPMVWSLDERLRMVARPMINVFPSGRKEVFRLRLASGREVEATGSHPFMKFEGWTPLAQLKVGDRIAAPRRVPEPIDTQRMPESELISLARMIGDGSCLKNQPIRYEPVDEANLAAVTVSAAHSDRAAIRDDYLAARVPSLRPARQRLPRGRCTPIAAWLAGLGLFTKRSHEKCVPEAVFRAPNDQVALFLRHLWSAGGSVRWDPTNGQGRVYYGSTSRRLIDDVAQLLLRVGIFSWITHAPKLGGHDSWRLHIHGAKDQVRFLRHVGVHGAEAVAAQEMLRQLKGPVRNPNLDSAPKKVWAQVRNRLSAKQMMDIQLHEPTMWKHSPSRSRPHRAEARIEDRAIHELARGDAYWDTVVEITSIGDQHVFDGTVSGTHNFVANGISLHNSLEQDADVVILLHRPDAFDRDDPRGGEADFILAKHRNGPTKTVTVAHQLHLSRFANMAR

[5] = target: T3, Protein RecA (Mycobacterium tuberculosis, UniProt P9WHJ3); assay: Fluorescence Cell-Free Homogeneous Dose Retest to Identify Inhibitors of RecA-Intein Splicing Activity. [Related pubchem assays (depositor defined):AID2097, AID2223, AID489010, AID492950]; format: functional
T3 sequence (P9WHJ3 whole entry): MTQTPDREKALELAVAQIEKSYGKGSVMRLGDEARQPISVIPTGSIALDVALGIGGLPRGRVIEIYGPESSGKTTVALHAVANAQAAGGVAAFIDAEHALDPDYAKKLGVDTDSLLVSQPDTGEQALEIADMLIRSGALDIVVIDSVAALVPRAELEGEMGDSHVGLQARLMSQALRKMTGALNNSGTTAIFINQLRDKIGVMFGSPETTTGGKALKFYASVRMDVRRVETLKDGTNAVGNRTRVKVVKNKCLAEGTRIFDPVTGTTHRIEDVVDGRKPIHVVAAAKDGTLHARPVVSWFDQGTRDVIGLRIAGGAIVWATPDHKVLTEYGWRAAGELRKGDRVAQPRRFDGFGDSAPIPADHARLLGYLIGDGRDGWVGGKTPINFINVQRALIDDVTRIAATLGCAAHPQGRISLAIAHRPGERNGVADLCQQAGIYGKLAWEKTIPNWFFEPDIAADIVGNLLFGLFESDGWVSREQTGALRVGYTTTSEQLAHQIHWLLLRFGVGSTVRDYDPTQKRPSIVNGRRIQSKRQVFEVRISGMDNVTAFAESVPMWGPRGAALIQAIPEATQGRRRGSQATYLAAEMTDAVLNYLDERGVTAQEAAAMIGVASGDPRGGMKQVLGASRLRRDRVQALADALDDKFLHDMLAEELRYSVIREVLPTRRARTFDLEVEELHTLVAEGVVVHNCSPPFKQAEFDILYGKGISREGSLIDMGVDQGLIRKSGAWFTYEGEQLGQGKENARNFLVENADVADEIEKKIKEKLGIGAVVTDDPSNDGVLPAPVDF

[6] = target: T1, Sentrin-specific protease 8; format: functional; remark: listed apart in the source
[7] = target: Long-chain-fatty-acid--AMP ligase FadD28 (Mycobacterium tuberculosis, UniProt P9WQ59); assay: Fluorescence polarization aasay to screen for inhibitors that compete for the binding of FadD28 to a bisubstrate Measured in Biochemical System Using Plate Reader - 2147-01_Inhibitor_Dose_CherryPick_Activity.; format: functional, Mycobacterium tuberculosis H37Rv
[8] = target: T4, Aminopeptidase N (Plasmodium falciparum FcB1/Columbia, UniProt O96935); assay: P. falciparum M1AAP inhibitors, biochemical, fluorogenic H-Leu-NHMec substrate, 1536-well (AID 1445); set-up: species or system Plasmodium falciparum 3D7, 3D7
T4 sequence (O96935 whole entry): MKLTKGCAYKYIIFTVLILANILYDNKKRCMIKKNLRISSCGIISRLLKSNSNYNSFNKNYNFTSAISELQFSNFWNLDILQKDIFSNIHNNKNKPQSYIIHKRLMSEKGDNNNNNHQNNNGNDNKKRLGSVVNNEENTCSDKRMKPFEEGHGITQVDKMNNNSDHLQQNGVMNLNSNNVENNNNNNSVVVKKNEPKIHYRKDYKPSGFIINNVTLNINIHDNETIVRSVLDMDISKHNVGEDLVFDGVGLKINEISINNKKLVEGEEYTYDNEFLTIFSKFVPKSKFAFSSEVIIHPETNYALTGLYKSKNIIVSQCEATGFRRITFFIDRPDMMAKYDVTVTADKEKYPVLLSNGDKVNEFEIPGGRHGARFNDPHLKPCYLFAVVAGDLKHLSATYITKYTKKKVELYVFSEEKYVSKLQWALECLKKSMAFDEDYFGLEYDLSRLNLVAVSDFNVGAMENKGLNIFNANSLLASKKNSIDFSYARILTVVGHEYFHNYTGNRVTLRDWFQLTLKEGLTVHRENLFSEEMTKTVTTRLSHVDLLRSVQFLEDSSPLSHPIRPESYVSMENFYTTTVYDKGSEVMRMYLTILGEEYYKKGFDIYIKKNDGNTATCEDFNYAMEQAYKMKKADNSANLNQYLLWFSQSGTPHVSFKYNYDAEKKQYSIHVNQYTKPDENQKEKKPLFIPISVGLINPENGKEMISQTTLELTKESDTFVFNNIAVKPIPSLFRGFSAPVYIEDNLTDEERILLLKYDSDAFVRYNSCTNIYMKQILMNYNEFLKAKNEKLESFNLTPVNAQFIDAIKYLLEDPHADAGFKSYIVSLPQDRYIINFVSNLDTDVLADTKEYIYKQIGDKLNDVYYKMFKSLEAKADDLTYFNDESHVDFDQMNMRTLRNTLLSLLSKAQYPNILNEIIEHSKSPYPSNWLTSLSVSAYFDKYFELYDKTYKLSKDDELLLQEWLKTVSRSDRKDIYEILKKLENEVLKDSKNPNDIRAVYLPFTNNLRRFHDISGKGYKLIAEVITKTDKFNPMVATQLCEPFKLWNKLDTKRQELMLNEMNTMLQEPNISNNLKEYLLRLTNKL

[9] = cells; format: functional, cell-based
[10] = target: Sentrin-specific protease 1 (Homo sapiens, UniProt Q9P0U3); assay: Dose response confirmation of small molecule inhibitors of the catalytic domain of the SUMO protease, SENP1 in a FRET assay.; format: functional; conditions: read-out: IC50_Mean
[11] = target: Nonstructural protein 1 (Influenza A virus, UniProt Q194T2); format: functional, Influenza A virus (A/California/07/2009(H1N1))
[12] = cells; format: functional, cell-based; remark: listed apart in the source
[13] = growth suppression of PTEN-null colon cells, dose response, cell-based, HCT116 PTEN knockout (AID 1047); format: functional;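 note: HCT116 colon tumor cells with PTEN knocked out; cells exposed to compound for 60 hours before readout; potency for loss of cell viability measured by luminescence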
[14] = microbe, parasite or virus in culture; format: functional; conditions: Mycobacterium tuberculosis
[15] = target: T5, Cytochrome P450 1A2 (Homo sapiens, UniProt P05177);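 note: PubChem cytochrome P450 panel assay, CYP1A2 panel member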
T5 sequence (P05177 whole entry): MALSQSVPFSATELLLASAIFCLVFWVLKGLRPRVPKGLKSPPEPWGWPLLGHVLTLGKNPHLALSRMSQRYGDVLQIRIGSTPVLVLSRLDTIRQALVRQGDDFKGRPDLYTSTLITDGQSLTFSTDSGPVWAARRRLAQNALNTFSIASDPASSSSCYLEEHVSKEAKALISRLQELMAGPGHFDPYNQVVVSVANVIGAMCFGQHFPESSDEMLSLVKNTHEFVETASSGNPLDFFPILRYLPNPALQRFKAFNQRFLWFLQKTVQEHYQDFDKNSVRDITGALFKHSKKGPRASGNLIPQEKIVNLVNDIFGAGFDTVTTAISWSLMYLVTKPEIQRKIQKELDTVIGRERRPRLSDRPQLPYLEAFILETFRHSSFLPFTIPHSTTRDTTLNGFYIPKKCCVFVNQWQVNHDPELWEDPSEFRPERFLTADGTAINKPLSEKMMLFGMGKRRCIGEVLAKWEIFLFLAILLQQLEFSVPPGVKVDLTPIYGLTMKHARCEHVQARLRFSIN

[16] = Luminescent dose response cell-based high throughput screening assay for inhibitors of the Janus kinase 2 mutant JAK2V617F. [Related pubchem assays: 1446 (Primary screen.), 1521 (Confirmation assay.), 1486 (Counter screen.)]; format: functional
[17] = HEK293T cytotoxicity, dose response, cytotoxicity control for miR-122 modulator project, cell-based, inhibitor set, cherry-pick, set 2 (AID 720697); format: functional
[18] = HEK293T cytotoxicity, dose response, cytotoxicity control for miR-122 modulator project, cell-based, activator set, cherry-pick (AID 720690); format: functional;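 note: HEK293T human cells scored for general mammalian cytotoxicity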
[19] = miR-122 activators in hepatoma reporter cells, dose response, cell-based, Huh7 psiCHECK-miR122, Renilla luciferase, cherry-picked (AID 651956); format: functional;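 note: huh7 hepatoma cells stably carrying a psiCHECK-2 miR-122 sensor plasmid; renilla luciferase signal reporting endogenous miR-122 activity after 48 h compound exposure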
[20] = growth suppression of beta-catenin-knockout colon cells, dose response, cell-based, HCT116, human colon tumor (AID 1045); format: functional;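 note: HCT116 colon tumor cells with beta catenin knocked out; cells exposed to compound for 60 hours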
[21] = target: Cytochrome P450 3A4 (Homo sapiens, UniProt P08684);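 note: CYP3A4 tested as one member of a cytochrome P450 panel screen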
[22] = target: Arf-GAP with SH3 domain, ANK repeat and PH domain-containing protein 1 (Homo sapiens, UniProt Q9ULH1); format: functional;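 note: biochemical fluorescence polarization dose–response screen measuring inhibition of ASAP1; ASAP1 GAP domain stimulating GTP hydrolysis by truncated human ARF1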
[23] = target: ADP-ribosylation factor GTPase-activating protein 1 (Rattus norvegicus, UniProt Q62848); assay: Fluorescence polarization-based biochemical high throughput dose response screening assay to identify inhibitors of ADP-ribosylation factor GTPase activating protein 1 (ARFGAP1).; format: functional
[24] = NIH/3T3 fibroblast cytotoxicity, dose response, cytotoxicity control for T. cruzi growth inhibitor project, cell-based, cherry-pick samples, set 2 (AID 651817); format: functional; conditions: NIH3T3
[25] = target: T6, Probable nicotinate-nucleotide adenylyltransferase (Staphylococcus aureus (strain N315), UniProt P65502); format: functional, Staphylococcus aureus subsp. aureus N315;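 for IC50 Mean: confirmatory dose-response retesting of NadD inhibitor hits first found in an ultra-high-throughput screen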
[26] = ARNT/TACC3 interaction disruptors, potency, confirmation, biochemical, AlphaScreen, cherry-picked samples (AID 651703); format: functional, Homo sapiens;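 note: His-tagged ARNT PAS-B domain paired with GST-TACC3 E629A dimer coactivator fragment; potency of inhibitors that break up the complex and lower AlphaScreen signal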
[27] = target: Genome polyprotein (dengue virus type 2, UniProt P29990); assay: Dengue-2 NS5 methyltransferase inhibitors, primary screen, biochemical, confirmation dose response (AID 588689); format: functional
[28] = target: T6, Probable nicotinate-nucleotide adenylyltransferase; format: functional, Staphylococcus aureus subsp. aureus N315; conditions: read-out: IC50_Mean

T6 sequence (P65502 whole entry, the tested form may be a part): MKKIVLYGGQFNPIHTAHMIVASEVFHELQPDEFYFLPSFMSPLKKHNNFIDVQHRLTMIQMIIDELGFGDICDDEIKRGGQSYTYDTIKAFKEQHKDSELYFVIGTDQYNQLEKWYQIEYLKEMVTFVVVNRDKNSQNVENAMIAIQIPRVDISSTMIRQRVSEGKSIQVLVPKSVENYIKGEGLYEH
Mu-type opioid receptor, sequence (P35372 whole entry): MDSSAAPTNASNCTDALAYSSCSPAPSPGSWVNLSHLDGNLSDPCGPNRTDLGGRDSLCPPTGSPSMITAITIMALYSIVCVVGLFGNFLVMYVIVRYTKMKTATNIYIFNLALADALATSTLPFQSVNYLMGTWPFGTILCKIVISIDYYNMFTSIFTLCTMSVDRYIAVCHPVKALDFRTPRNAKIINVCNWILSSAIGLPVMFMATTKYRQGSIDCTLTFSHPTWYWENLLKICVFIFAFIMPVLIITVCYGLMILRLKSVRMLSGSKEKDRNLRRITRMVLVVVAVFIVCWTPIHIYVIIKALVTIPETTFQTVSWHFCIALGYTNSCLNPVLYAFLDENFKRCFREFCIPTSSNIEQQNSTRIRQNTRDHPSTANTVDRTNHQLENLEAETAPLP
ADP-ribosylation factor GTPase-activating protein 1, sequence (Q62848 whole entry): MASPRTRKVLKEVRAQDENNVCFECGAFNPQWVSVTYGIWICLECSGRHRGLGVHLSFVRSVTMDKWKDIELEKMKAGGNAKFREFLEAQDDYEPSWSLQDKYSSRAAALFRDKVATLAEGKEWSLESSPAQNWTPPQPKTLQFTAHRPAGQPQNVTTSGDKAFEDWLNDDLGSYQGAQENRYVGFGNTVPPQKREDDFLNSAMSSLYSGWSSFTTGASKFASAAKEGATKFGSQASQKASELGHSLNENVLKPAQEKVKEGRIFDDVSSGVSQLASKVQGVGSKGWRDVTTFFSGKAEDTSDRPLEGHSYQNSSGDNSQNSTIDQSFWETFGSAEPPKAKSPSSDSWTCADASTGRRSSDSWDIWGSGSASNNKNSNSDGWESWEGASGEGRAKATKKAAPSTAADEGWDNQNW
Arf-GAP with SH3 domain, ANK repeat and PH domain-containing protein 1, sequence (Q9ULH1 whole entry, the tested form may be a part): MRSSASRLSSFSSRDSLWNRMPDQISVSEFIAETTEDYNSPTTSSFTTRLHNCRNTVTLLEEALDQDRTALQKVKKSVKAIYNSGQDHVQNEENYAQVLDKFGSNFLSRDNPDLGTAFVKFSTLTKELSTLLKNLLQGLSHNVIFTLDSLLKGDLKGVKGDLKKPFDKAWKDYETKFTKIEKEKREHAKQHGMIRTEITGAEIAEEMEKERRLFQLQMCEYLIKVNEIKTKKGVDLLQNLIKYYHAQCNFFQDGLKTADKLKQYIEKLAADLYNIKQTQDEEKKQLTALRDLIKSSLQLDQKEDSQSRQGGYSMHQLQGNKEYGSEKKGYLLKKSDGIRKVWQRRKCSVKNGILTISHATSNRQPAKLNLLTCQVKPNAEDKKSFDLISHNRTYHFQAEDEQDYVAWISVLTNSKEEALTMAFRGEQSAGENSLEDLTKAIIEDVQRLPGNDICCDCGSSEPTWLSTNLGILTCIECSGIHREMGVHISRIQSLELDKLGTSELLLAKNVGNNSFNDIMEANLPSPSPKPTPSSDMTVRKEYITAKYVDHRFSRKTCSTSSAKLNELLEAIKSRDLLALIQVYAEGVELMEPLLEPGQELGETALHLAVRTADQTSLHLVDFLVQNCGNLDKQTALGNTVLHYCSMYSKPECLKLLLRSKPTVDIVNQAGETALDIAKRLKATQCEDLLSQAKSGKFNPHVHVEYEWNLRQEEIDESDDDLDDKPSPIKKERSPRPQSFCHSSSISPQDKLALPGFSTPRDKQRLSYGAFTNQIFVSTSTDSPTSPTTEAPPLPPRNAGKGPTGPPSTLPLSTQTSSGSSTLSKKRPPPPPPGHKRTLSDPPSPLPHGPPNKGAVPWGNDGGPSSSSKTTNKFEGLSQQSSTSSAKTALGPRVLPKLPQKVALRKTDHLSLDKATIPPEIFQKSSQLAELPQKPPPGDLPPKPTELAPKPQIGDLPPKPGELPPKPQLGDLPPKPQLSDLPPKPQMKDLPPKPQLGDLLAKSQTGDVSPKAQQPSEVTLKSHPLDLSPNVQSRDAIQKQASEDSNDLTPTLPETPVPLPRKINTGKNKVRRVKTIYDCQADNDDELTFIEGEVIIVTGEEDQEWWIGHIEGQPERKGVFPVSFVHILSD
Long-chain-fatty-acid--AMP ligase FadD28, sequence (P9WQ59 whole entry): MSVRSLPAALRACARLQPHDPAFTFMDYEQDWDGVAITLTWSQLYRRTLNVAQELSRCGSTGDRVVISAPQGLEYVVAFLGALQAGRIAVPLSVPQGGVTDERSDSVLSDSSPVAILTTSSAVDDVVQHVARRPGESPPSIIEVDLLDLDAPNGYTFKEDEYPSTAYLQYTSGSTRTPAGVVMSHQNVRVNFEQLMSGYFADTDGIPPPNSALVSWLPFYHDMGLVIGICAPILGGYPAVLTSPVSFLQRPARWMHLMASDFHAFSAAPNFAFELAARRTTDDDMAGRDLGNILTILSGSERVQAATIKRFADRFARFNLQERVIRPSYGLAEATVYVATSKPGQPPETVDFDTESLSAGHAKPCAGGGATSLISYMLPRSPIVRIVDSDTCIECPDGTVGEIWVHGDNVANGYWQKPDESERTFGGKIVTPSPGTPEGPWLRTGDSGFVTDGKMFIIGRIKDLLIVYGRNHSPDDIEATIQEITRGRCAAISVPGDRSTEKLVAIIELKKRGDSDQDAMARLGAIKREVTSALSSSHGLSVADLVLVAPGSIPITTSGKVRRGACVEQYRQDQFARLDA
Cytochrome P450 3A4, sequence (P08684 whole entry, the tested form may be a part): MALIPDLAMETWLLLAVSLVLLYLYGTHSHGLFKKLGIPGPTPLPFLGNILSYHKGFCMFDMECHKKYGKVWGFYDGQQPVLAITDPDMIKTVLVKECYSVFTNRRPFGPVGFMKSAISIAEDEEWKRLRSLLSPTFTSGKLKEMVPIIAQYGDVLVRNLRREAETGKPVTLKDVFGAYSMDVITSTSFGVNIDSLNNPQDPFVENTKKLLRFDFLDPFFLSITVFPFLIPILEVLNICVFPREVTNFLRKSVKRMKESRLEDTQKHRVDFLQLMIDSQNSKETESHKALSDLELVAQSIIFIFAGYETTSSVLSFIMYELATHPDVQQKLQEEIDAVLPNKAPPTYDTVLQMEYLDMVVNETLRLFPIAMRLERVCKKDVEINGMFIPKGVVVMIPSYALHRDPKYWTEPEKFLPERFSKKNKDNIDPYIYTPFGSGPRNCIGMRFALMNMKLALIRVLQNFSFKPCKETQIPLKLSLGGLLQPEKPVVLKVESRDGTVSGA
5-hydroxytryptamine receptor 2A, sequence (P35363 whole entry): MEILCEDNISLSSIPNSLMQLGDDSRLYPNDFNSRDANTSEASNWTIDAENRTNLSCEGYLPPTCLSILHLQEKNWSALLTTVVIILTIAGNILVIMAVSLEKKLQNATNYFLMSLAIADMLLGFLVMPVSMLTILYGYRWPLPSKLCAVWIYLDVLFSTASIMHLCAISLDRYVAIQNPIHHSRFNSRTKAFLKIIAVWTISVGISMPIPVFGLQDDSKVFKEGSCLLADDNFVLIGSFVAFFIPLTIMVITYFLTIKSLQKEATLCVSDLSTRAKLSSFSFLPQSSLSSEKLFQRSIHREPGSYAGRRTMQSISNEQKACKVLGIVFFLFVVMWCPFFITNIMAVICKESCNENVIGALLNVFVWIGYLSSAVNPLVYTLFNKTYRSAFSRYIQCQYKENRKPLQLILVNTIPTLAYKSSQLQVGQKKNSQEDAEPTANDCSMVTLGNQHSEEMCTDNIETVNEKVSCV
Sentrin-specific protease 1, sequence (Q9P0U3 whole entry, the tested form may be a part): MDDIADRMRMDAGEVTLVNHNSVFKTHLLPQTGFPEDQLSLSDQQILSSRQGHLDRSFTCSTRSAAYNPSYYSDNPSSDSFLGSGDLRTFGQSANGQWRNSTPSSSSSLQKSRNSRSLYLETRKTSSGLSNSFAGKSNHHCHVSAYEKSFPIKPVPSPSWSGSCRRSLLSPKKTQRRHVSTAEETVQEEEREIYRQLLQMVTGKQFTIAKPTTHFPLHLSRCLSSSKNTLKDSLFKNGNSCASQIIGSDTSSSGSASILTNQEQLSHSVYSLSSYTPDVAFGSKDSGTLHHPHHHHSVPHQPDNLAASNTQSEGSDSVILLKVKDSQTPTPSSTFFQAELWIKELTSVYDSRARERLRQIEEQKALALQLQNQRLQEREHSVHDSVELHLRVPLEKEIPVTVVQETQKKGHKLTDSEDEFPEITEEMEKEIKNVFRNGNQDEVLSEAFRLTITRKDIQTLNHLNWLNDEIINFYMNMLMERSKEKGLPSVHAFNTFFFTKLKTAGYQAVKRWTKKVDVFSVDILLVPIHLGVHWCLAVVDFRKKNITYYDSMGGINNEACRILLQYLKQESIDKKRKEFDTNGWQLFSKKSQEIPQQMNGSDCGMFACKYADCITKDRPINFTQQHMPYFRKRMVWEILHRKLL
Nonstructural protein 1, sequence (Q194T2 whole entry): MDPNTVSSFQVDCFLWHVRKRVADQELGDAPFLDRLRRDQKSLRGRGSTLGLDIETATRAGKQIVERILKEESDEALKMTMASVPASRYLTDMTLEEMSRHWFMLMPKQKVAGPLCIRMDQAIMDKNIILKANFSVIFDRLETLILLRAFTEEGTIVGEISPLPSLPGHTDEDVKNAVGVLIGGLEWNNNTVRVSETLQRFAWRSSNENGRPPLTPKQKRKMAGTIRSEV

CCCCCc1cc(=O)oc2c(C(CCN3CCN(c4ccccc4)CC3)c3ccc4c(c3)OCO4)c(OC)cc(OC)c12 (stereo not given)
EC50 [1]: 92.5 µM (inactive) | EC50 [2]: 76.1 µM (inactive)

CC1=NN(c2ccc(C)cc2C)C(=O)C1C(c1cccc(O)c1)C1C(=O)N(c2ccc(C)cc2C)N=C1C (stereo not given)
IC50 [3]: 30 µM (active) | AC50 [4]: 1.09 µM (active) | EC50 [5]: 0.524 µM (active) | IC50 [6]: 12.6 µM (active)

CCOc1ccc(-n2c(=S)sc3c(O)nc(SCC(=O)N4CCC(C)CC4)nc32)cc1
AC50 [7]: 99 µM (active) | IC50 [8]: 30 µM (active)

CCOC(=O)/C(C#N)=C/C=C1\C=Cc2ccccc2N1CC
EC50 [9]: > 350 µM (not active) | IC50 [10]: 6.27 µM (active) | IC50 [11]: > 100 µM (active) | EC50 [12]: > 350 µM (not active)

CCCn1c(CC)nc([N+](=O)[O-])c1S(=O)(=O)c1ccccc1
EC50 [13]: 5.85 µM (active) | CC50 [14]: 13.1 µM (active) | AC50 [15]: 22.4 µM (inconclusive) | IC50 [16]: 0.996 µM (active) | AC50 [17]: 4.03 µM (active) | AC50 [18]: 7.65 µM (active) | AC50 [19]: 24.8 µM (active) | EC50 [20]: 6.09 µM (active) | AC50 [4]: > 380 µM (inactive) | EC50 [5]: > 380 µM (inactive) | AC50 [21]: 25.1 µM (inconclusive)

COc1ccccc1C=NNC(=O)NN=Cc1ccccc1OC
IC50 [22]: 23.2 µM (inactive) | IC50 [23]: 25.6 µM (inactive)

C[C@@H]1CN([C@@H](C)CO)C(=O)Cc2cc(NS(=O)(=O)c3ccc(Cl)cc3)ccc2O[C@H]1CN(C)S(=O)(=O)c1ccc(Cl)cc1
AC50 [24]: 19.4 µM (active)

O=C(O)COc1ccccc1/C=N/NC(=O)c1cc(-c2ccc(Cl)cc2)nc2ccccc12
IC50 [25]: 5.1 µM (active) | AC50 [26]: 75.2 µM (active) | IC50 [27]: 39.5 µM (active) | IC50 [28]: 34.2 µM (active)

— ChEMBL document CHEMBL1201862, “PubChem BioAssay data set” (2004)
